In patent US7067500B2, “Betaines as adjuvants to susceptibility testing and antimicrobial therapy” (priority 1997, dated 2006):
“Also recorded” adds a separate entry of the source. Counter-ions that a name gives are not always drawn.

Key:
[1] = tested on: M. tuberculosis isolates ATCC 27294 and 571/573-BAL; test: CB-18 vs. EDTA, BACTEC 12B growth curves; format: cell-based, Mycobacterium tuberculosis
[2] = tested on: M. tuberculosis isolates ATCC 27294 and 571/573-BAL; test: CB-18 and TMA-18 comparison, BACTEC 12B growth curves; format: cell-based, Mycobacterium tuberculosis
Protocol: If the mechanism of CB-18's action was similar to that of the quaternary salts (i.e., generally deleterious), then some delay would be anticipated. For example, if the CB-18 effect was a consequence of the surface active property of the detergent, then disruption of cellular function would not only have nonspecific long term consequences, but would also be independent of the isolate. In an effort to examine the similarity in the mechanism, CB-18 was assayed in parallel with trimethyloctadecylammonium bromide (TMA-18 (Aldrich, Milwaukee, Wis., Cat.# 35,924-6): made as a 100× stock in 1:1, water:isopropanol similar to that described for CB-18 in Example 1). The experimental design is outlined in FIG. 6.
In this experiment both ATCC 27294 and 571/573-BAL were cultivated on 7H11-selective media, and then serially diluted in NALC/citrate to 10,000×. The planting solution (i.e., the final dilution (50,000×)) was manufactured by diluting into either buffer, 0.5 mM CB-18, or 0.1 mM TMA-18 (all concentrations represent the final detergent concentration in the planting solution). […] The final concentration of CB-18 during incubation was approximately 17 μg/ml. The final concentration of TMA-18 during incubation was approximately 3.4 μg/ml. […] FIGS. 7A–7C show one experiment wherein ATCC 27294 cells were planted in the different solutions described above, and FIGS. 8A–8C show a parallel experiment wherein 571/573-BAL cells were planted in the same series.

[3] = tested on: M. tuberculosis complex isolates ATCC 27294 and 571/573-BAL; test: CB-18 titration, BACTEC 12B growth curves; format: cell-based, Mycobacterium tuberculosis; conditions: for CB-18 concentration at which growth was completely shut down / CB-18 concentration at which growth was impacted to a minor degree: absence of antibiotics
[4] = tested on: M. fortuitum complex isolates ATCC 6841 and 495-JHH; test: CB-18 titration, BACTEC 12B growth curves; format: cell-based; conditions: M. fortuitum 495-JHH
[5] = tested on: M. avium complex isolates ATCC 25291 and 802-BAL; test: CB-18 titration, BACTEC 12B growth curves; format: cell-based; conditions: MAC isolate 802-BAL; CB-18 alone (7–27 μg/ml tested)
[6] = tested on: M. tuberculosis isolates ATCC 27294 and 571/573-BAL; test: Processing in CB-18 vs. planting in CB-18, BACTEC 12B growth curves
[7] = tested on: M. tuberculosis isolates (Table 8); test: MTB isolates vs. antibiotic screen in the presence and absence of CB-18; conditions: CB-18 17 μg/ml
[8] = tested on: M. tuberculosis isolate 571/573-BAL; test: Planting in lecithin at low inocula, BACTEC 12B growth curves; format: cell-based, Mycobacterium tuberculosis; conditions: CB-18 (17 μg/ml) combined with P/caz; inocula 165±54, 33±11 and 8±3 cfu
Description: In this experiment the 571/573-BAL isolate was cultivated on 7H11-selective media, serially diluted in NALC/citrate to approximately 1,000×. In an attempt to examine how the inoculum impacted the results of this assay three different stocks were manufactured, one series in buffer and one series in CB-18. […] The planting solutions were manufactured by mixing these three stocks 1:1 with either buffer or a buffered solution of lecithin (Sigma, St. Louis, Mo.; Cat.#: P 5394 (7.5% lecithin was made up as a 100× concentrate in 100% ethanol (3 grams in 40 mls) and diluted in the Tris buffer of Example 1 immediately prior to use)). The final dilutions of three different planting solutions were approximately 5000×, 25,000×, and 100,000×. The final concentration of CB-18 and lecithin in the appropriate planting solutions was approximately 0.5 mM. […] The final concentration of both lecithin and CB-18 during incubation was approximately 17 μg/ml.
Aliquots of the three stocks (i.e., 2,500×, 12,500× and 50,000×) were also taken for quantitative culture by plating on 7H10 plates (Becton Dickinson, Cockeysville, Md.). […] FIG. 5A presents the 5,000× series planted in either buffer or buffer containing lecithin, and FIG. 5B presents the 5,000× series planted in CB-18 or CB-18 combined with lecithin. FIG. 5C presents the 25,000× series planted in either buffer or buffer containing lecithin, and FIG. 5D presents the 25,000× series planted in CB-18 or CB-18 combined with lecithin. FIG. 5E presents the 100,000× series planted in either buffer or buffer containing lecithin, and FIG. 5F presents the 100,000× series planted in CB-18 or CB-18 combined with lecithin.

[9] = tested on: M. tuberculosis isolate 571/573-BAL; test: Detergent screen for induced susceptibility, BACTEC 12B growth curves; format: cell-based, Mycobacterium tuberculosis; conditions: for effect on growth characteristics: 571/573-BAL
[10] = ATCC 27294, presence of antibiotics

**Q.** How did the effect on growth ([1]; 571/573-BAL, CB-18 alone 17 μg/ml) turn out when `CCCCCCCCCCCCCCCCCC[N+](C)(C)CCCC(=O)[O-]` [CB-18, N-(3-carboxypropyl)-N,N-dimethyl-1-octadecanaminium, inner salt] was run?
**A.** suppressed

**Q.** And the effect on growth ([1]; ATCC 27294, CB-18 alone 17 μg/ml, absence of MgCl2)?
**A.** unaffected

**Q.** What about the effect on growth ([1]; ATCC 27294 and 571/573-BAL, CB-18 17 μg/ml with P/cax) of the same molecule?
**A.** synergistically deleterious

**Q.** What about the effect on growth ([2]; 571/573-BAL, 17 μg/ml CB-18, R.F., PANTA and P/cax) of the same molecule?
**A.** delays in all conditions became obvious

**Q.** And the effect on growth ([2]; 571/573-BAL, 17 μg/ml CB-18 with P/cax)?
**A.** dramatic delay

**Q.** And the effect on growth ([2]; ATCC 27294, 17 μg/ml CB-18 in PANTA alone)?
**A.** minor delays

**Q.** And the effect on growth ([2]; ATCC 27294, 17 μg/ml CB-18 with P/cax)?
**A.** significant delays

**Q.** And the “CB-18 concentration at which the isolate was viable” value ([3]; 571/573-BAL, CB-18 alone)?
**A.** 13 µg/mL

**Q.** What about the “CB-18 concentration at which growth was completely shut down” value ([3]; 571/573-BAL) of the same molecule?
**A.** 27 µg/mL

**Q.** And the “CB-18 concentration at which growth was impacted to a minor degree” value ([3]; 571/573-BAL)?
**A.** 13 µg/mL

**Q.** What about the “CB-18 concentration at which growth was absent” value ([3]; 571/573-BAL, presence of antibiotics) of the same molecule?
**A.** 13 µg/mL

**Q.** What about the “CB-18 concentration at which growth was completely shut down” value ([3]; ATCC 27294) of the same molecule?
**A.** 54 µg/mL

**Q.** What about the “CB-18 concentration at which growth was impacted to a minor degree” value ([3]; ATCC 27294) of the same molecule?
**A.** 27 µg/mL

**Q.** And the “CB-18 concentration at which growth was affected to a minor degree” value [3, 10]?
**A.** 13 µg/mL

**Q.** What about the “CB-18 concentration at which growth was nonexistent” value [3, 10] of the same molecule?
**A.** 27 µg/mL

**Q.** What about the “CB-18 concentration causing no alteration in growth” value ([3]; ATCC 27294 and 571/573-BAL, absence of antibiotics (FIGS. 10A and 11A)) of the same molecule?
**A.** 3 to 7 µg/mL

**Q.** What about the “CB-18 concentration at which the isolate was viable / able to grow to some degree” value ([4]; CB-18 alone) of the same molecule?
**A.** 109 µg/mL

**Q.** And the “CB-18 concentration at which growth was affected to some degree” value ([4]; combined with cefoxitin)?
**A.** 13 µg/mL

**Q.** What about the “CB-18 concentration at which growth was completely inhibited” value ([4]; combined with cefoxitin) of the same molecule?
**A.** 27 µg/mL

**Q.** What about the “CB-18 concentration at which viability falls off” value [5] of the same molecule?
**A.** not affected at the test concentrations; also recorded: Viability is unaffected at levels tested

**Q.** What about the “effect on growth characteristics” value ([6]; 571/573-BAL, 90 minute exposure to CB-18 at 383 μg/ml, planted in buffer) of the same molecule?
**A.** no apparent effect on growth characteristics

**Q.** And the “CB-18 concentration in the culture bottle at which growth was unimpeded” value ([6]; 571/573-BAL, processed in CB-18, then diluted)?
**A.** < 1 µg/mL

**Q.** And the “impact on growth characteristics” value ([6]; ATCC 27294, processed in CB-18 (383 μg/ml) and/or planted in CB-18 (17 μg/ml final), PANTA or P/caz)?
**A.** generally unaffected

**Q.** And the post antibiotic effect ([6]; cells processed in CB-18 but planted in buffer)?
**A.** no post antibiotic effect; also recorded: no “post antibiotic effect”

**Q.** And the “CB-18 induced sensitivity to antibiotics tested” value (from here on “CB-18 induced sensitivity”) ([7]; 040-TBR)?
**A.** affected by CB-18 to some degree; also recorded: Minor CB-18 induced sensitivity to most antibiotics

**Q.** What about the “effect of CB-18 on cax sensitivity (degree of exacerbation)” value ([7]; 040-TBR, P/cax) of the same molecule?
**A.** significantly affected by the presence of CB-18; also recorded: tested, however, cax sensitivity significantly

**Q.** What about the “CB-18 induced sensitivity” value ([7]; 52-96-BOL) of the same molecule?
**A.** affected by CB-18 to some degree; also recorded: Minor CB-18 induced sensitivity to most antibiotics

**Q.** And the “effect of CB-18 on cax sensitivity (degree of exacerbation)” value ([7]; 52-96-BOL, P/cax)?
**A.** significantly affected by the presence of CB-18; also recorded: tested, however, cax sensitivity significantly

**Q.** And the “CB-18 induced sensitivity” value ([7]; 57-96-BOL (MDR))?
**A.** exacerbated in the presence of CB-18; also recorded: moderate CB-18 induced sensitivity to most

**Q.** And the “effect of CB-18 on cax sensitivity” value ([7]; 061-TBR, P/cax)?
**A.** exacerbated by CB-18. Strain is INH resistant

**Q.** What about the “CB-18 induced sensitivity” value ([7]; 512-JHH) of the same molecule?
**A.** Minor CB-18 induced sensitivity to most antibiotics

**Q.** And the “CB-18 induced sensitivity” value ([7]; 535-BAL)?
**A.** unaffected by CB-18 at this concentration

**Q.** And the “effect of CB-18 on cax sensitivity” value ([7]; 535-BAL, P/cax)?
**A.** cax sensitivity was independent of CB-18

**Q.** What about the “CB-18 induced sensitivity” value ([7]; 538-JHH) of the same molecule?
**A.** Minor CB-18 induced sensitivity to most antibiotics

**Q.** What about the “CB-18 induced sensitivity” value ([7]; 571-BAL) of the same molecule?
**A.** remarkable induction of susceptibility for all drugs tested; also recorded: Dramatic CB-18 induced sensitivity

**Q.** What about the “CB-18 induced sensitivity” value ([7]; 573-BAL) of the same molecule?
**A.** remarkable induction of susceptibility for all drugs tested; also recorded: Dramatic CB-18 induced sensitivity

**Q.** And the “effect of CB-18 on cax sensitivity” value ([7]; 896-BAL, P/cax)?
**A.** slightly exacerbated by CB-18. Strain is multi

**Q.** And the “effect of CB-18 on cax sensitivity” value ([7]; ATCC 27294, P/cax (ceftriaxone 8 μg/ml))?
**A.** minor delays; also recorded: exacerbated by CB-18

**Q.** And the “CB-18 induced sensitivity” value ([7]; ATCC 27294, PANTA, P/caz, P/cfp, P/cax, P/cft)?
**A.** little or no difference; also recorded: Minimal, if any, CB-18 induced sensitivity to

**Q.** What about the “culture result of replicate bottles” value [8] of the same molecule?
**A.** negative

**Q.** And the “effect on growth characteristics” value ([9]; CB-18 (17 μg/ml) combined with antibiotics (PANTA, P/cax))?
**A.** synergistically deleterious

**Q.** And the “effect on growth characteristics” value ([9]; CB-18 alone (17 μg/ml, R.F.))?
**A.** had an impact on the growth characteristics

**Q.** And the “CB-18 effect in the methods of the invention” value ([9]; carboxybetaines tested)?
**A.** show the CB-18 effect
